Laboratory results as given in ChEMBL document CHEMBL4033746, “Synthesis, potential anti-inflammatory and analgesic activities study of (S)-N-substituted-1-phenyl-3,4-dihydroisoquinoline-2(1H)-carboxamides” (Bioorg Med Chem Lett, 2017).
pIC50: −log10 of the molar value.

Key:
Mus musculus [1] = assay: Anti-inflammatory activity in mouse model of xylene-induced ear edema assessed as inhibition of ear edema at 20 mg/kg, ip pre-treated before xylene injection and measured 1 hr post xylene injection relative to untreated control; format: functional
Mus musculus [2] = assay: Anti-inflammatory activity in mouse model of xylene-induced ear edema assessed as inhibition of ear edema at 100 mg/kg, ip pre-treated before xylene injection and measured 1 hr post xylene injection relative to untreated control; format: functional
Mus musculus [3] = assay: Analgesic activity in mouse at 30 mg/kg, ip measured after 60 mins at 58 degC by hot plate method; format: functional
Mus musculus [4] = assay: Analgesic activity in mouse at 10 mg/kg, ip measured after 60 mins at 58 degC by hot plate method; format: functional
Mus musculus [5] = assay: Anti-inflammatory activity in mouse model of xylene-induced ear edema assessed as inhibition of ear edema at 10 mg/kg, ip pre-treated before xylene injection and measured 1 hr post xylene injection relative to untreated control; format: functional
[6] = biological target: T1, Prostaglandin G/H synthase 1 (Ovis aries, UniProt P05979); assay: Inhibition of ovine COX1
T1 sequence (P05979 whole entry): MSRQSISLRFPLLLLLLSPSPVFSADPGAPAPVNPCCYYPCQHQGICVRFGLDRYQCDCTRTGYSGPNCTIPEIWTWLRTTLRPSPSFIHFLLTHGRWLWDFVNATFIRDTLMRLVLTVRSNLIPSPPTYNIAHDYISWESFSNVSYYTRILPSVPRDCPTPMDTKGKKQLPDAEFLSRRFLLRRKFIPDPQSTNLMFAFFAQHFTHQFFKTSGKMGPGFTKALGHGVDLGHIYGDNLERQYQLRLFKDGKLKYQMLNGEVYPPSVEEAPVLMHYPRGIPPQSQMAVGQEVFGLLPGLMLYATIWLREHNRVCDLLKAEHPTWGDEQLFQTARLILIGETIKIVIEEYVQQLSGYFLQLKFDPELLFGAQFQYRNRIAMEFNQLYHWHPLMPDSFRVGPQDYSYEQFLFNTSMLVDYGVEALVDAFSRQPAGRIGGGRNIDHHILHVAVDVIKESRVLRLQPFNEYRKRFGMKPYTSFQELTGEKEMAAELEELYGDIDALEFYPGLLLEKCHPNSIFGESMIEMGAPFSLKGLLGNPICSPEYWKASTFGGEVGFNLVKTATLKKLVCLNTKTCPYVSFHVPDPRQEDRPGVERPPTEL

Mus musculus [7] = assay: Anti-inflammatory activity in mouse model of xylene-induced ear edema assessed as inhibition of ear edema at 30 mg/kg, ip pre-treated before xylene injection and measured 1 hr post xylene injection relative to untreated control; format: functional
Mus musculus [8] = assay: Analgesic activity in mouse at 100 mg/kg, ip measured after 60 mins at 58 degC by hot plate method; format: functional
Mus musculus [9] = assay: Analgesic activity in mouse at 20 mg/kg, ip measured after 60 mins at 58 degC by hot plate method; format: functional
Mus musculus [10] = assay: Anti-inflammatory activity in mouse model of xylene-induced ear edema assessed as inhibition of ear edema at 10 to 30 mg/kg, ip pre-treated before xylene injection and measured 1 hr post xylene injection relative to untreated control; format: functional, organism-based

Q: For O=C(Nc1cccc(Br)c1)N1CCc2ccccc2[C@@H]1c1ccccc1, which inhibition in vivo at 20 mg/kg (Mus musculus [1]) is on record?
A: 51.7%

Q: What about the inhibition in vivo at 100 mg/kg (Mus musculus [2]) of the same molecule?
A: 83.1%

Q: And the Activity (Mus musculus [3])?
A: 80.2%

Q: And the Activity (Mus musculus [4])?
A: 58.7%

Q: And the inhibition in vivo at 10 mg/kg (Mus musculus [5])?
A: 44.2%

Q: And the pIC50 [6]?
A: 5.11

Q: What about the inhibition in vivo at 30 mg/kg (Mus musculus [7]) of the same molecule?
A: 61.2%

Q: What about the Activity (Mus musculus [8]) of the same molecule?
A: 89.8%

Q: And the Activity (Mus musculus [9])?
A: 63.7%

Q: How did the inhibition in vivo at 100 mg/kg (Mus musculus [2]) turn out when COc1cccc(NC(=O)N2CCc3ccccc3[C@@H]2c2ccccc2)c1 was run?
A: 85.9%

Q: What about the Activity (Mus musculus [8]) of the same molecule?
A: 94.6%

Q: Which results are given for Cc1cccc(NC(=O)N2CCc3ccccc3[C@@H]2c2ccccc2)c1?
A: inhibition in vivo at 100 mg/kg (Mus musculus [2]): 86.4%; Activity (Mus musculus [8]): 99.2%

Q: Which inhibition in vivo at 100 mg/kg (Mus musculus [2]) does the source give for O=C(NCc1ccccc1)N1CCc2ccccc2[C@@H]1c1ccccc1 here?
A: 77.4%

Q: And the Activity (Mus musculus [8])?
A: 96.3%

Q: How did the inhibition in vivo at 20 mg/kg (Mus musculus [1]) turn out when O=C(Nc1ccccc1)N1CCc2ccccc2[C@@H]1c1ccccc1 was run?
A: 69.5%

Q: What about the inhibition in vivo at 100 mg/kg (Mus musculus [2]) of the same molecule?
A: 95%

Q: What about the Activity (Mus musculus [3]) of the same molecule?
A: 87.2%

Q: What about the Activity (Mus musculus [4]) of the same molecule?
A: 69.6%

Q: What about the inhibition in vivo at 10 mg/kg (Mus musculus [5]) of the same molecule?
A: 60.3%

Q: What about the inhibition (Mus musculus [10]) of the same molecule?
A: Dose-dependent effect

Q: What about the pIC50 [6] of the same molecule?
A: 5.27

Q: What about the inhibition in vivo at 30 mg/kg (Mus musculus [7]) of the same molecule?
A: 74.7%

Q: And the Activity (Mus musculus [8])?
A: 100%

Q: What about the Activity (Mus musculus [9]) of the same molecule?
A: 76.4%

Q: O=C(N(c1ccccc1)c1ccccc1)N1CCc2ccccc2[C@@H]1c1ccccc1 was tested. Which inhibition in vivo at 100 mg/kg (Mus musculus [2]) did it give?
A: 86.3%

Q: And the Activity (Mus musculus [8])?
A: 73.3%

Q: For O=C(Nc1c(Cl)cccc1Cl)N1CCc2ccccc2[C@@H]1c1ccccc1, which inhibition in vivo at 100 mg/kg (Mus musculus [2]) is on record?
A: 92.7%

Q: And the inhibition (Mus musculus [10])?
A: Dose-dependent effect

Q: What about the Activity (Mus musculus [8]) of the same molecule?
A: 100%

Q: For O=C(Nc1cccc(F)c1)N1CCc2ccccc2[C@@H]1c1ccccc1, which inhibition in vivo at 100 mg/kg (Mus musculus [2]) is on record?
A: 84.9%

Q: What about the Activity (Mus musculus [8]) of the same molecule?
A: 89.8%

Q: With COc1ccc2c(c1)c(CC(=O)O)c(C)n2C(=O)c1ccc(Cl)cc1 [INDOMETHACIN] as the molecule, how does the Activity (Mus musculus [4]) read?
A: 73.7%

Q: And the inhibition in vivo at 10 mg/kg (Mus musculus [5])?
A: 51 to 90.4%

Q: And the Activity (Mus musculus [8])?
A: 98.6%

Q: With O=C(Nc1cccc(Cl)c1)N1CCc2ccccc2[C@@H]1c1ccccc1 as the molecule, how does the inhibition in vivo at 100 mg/kg (Mus musculus [2]) read?
A: 88%

Q: What about the Activity (Mus musculus [8]) of the same molecule?
A: 100%
